Paper PMC9046089, “CCNE1 amplification is synthetic lethal with PKMYT1 kinase inhibition” (Nature, 2022)
“And” between values parts separate entries of the source, which are not always exact repeats. Equal values may be shown once. Blank lines part the entries; values can stand above or below the compound they belong to.

How the values were obtained:
[1] = tested on: cyclin B, CDK1, CDK1-pT14; assay: Immunoblot of cyclin B, CDK1 and CDK1-pT14 after HU or gemcitabine; settings: for Quantitation of CDK1 (immunoblot of whole cell lysates) / Quantitation of CDK1-pT14 relative to total CDK1 (immunoblot of whole cell lysates) / Quantitation of cyclin B (immunoblot of whole cell lysates): FT282-hTERT-p53-R175H, DMSO = 1; for levels of cyclin B or CDK1: immunoblot and QIBC; for CDK1 pT14 levels: immunoblot, controlling for total CDK1
cytoplasmic cyclin B = assay: QIBC of cytoplasmic cyclin B intensity in EdU+ cells after HU or gemcitabine; assay type: cell-based; settings: 48 h
Protocol: Before collection, cells were pulsed with 20 μM EdU (5-ethynyl-2-deoxyuridine, Life Technologies cat. no. A10044) for 30 min and then washed with PBS and fixed with 4% paraformaldehyde (PFA) in PBS for 15 min at room temperature. Cells were then rinsed with PBS and permeabilized using 0.3% Triton X-100/PBS for 30 min. For chromatin-bound MCM measurements, cells were pre-extracted for 15 min on ice with CSK buffer (300 mM sucrose, 100 mM NaCl, 3 mM MgCl2, 10 mM PIPES pH 7.0, 0.5% v/v Triton-X 100) before PFA fixation. […] Fresh blocking buffer containing primary antibodies was added for 2 h. Cells were rinsed three times with PBS and then blocking buffer, with secondary antibodies and 0.4 μg ml^−1 DAPI (4,6-diamidino-2-phenylindole, Sigma-Aldrich, cat. no. D9542) was added for 1 h. After rinsing with PBS, immunocomplexes were fixed again using 4% PFA/PBS for 5 min.
Cells were fixed, permeabilized and stained in the same manner as immunofluorescence described above. Wells were filled with 200 μl PBS and images were acquired at the Network Biology Collaborative Centre (LTRI) on an InCell Analyzer 6000 automated microscope (GE Life Sciences) with a 20× objective. Image analysis was performed using Cellprofiler 3.1.9 and RStudio v1.2.5019[57] (Supplementary Fig. 4).

human recombinant PKMYT1 = biological target: T1, human recombinant PKMYT1 (Homo sapiens, UniProt Q99640); assay: ADP-Glo kinase assay of PKMYT1 catalytic activity; assay type: biochemical
T1 construct: full-length human GST–PKMYT1 recombinant protein; GST (N); purchased Thermo Fisher Scientific A33387
T1 sequence (Q99640 1-499): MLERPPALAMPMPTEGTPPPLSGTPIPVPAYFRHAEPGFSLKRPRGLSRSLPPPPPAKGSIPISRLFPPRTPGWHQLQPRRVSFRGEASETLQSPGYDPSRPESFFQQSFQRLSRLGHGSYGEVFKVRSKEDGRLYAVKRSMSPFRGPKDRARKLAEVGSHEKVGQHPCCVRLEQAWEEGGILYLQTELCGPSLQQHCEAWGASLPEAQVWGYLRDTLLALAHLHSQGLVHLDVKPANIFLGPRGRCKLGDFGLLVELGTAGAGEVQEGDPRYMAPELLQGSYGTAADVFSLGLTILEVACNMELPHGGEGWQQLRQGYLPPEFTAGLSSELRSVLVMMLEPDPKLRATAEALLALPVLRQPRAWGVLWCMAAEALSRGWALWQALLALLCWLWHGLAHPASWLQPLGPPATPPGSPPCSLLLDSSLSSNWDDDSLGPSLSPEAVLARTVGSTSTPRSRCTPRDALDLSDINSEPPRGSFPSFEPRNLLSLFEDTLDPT

HCC1569 cells = assay: Cell proliferation assay (Incucyte growth inhibition, synergy); assay type: cell-based; settings: for % growth relative to untreated: RP-6306 0
Excerpt: Per cent confluence relative to a non-treated control was used to evaluate growth inhibition induced by test compounds. […] (https://synergyfinder.fimm.fi).

SMILES: NC(=O)NO [hydroxyurea]
Quantitation of CDK1 (immunoblot of whole cell lysates) ([1]; 400 µM HU, listed as HU): 1.2117 and 1.452 and 2.133
Quantitation of CDK1-pT14 relative to total CDK1 (immunoblot of whole cell lysates) ([1]; 400 µM HU, listed as HU): 1.45 and 1.634 and 1.7444
Quantitation of cyclin B (immunoblot of whole cell lysates) ([1]; 400 µM HU, listed as HU): 1.625 and 1.428 and 1.053
levels of cyclin B or CDK1 [1]: did not detect increased levels
CDK1 pT14 levels [1]: increased
fold-change of cytoplasmic cyclin B intensity in EdU+ cells (cytoplasmic cyclin B; FT282-hTERT-p53-R175H CCNE1 high (C3), HU 50 mM (so in the source), listed as HU): 0.9979 and 0.9823 and 1.013
fold-change of cytoplasmic cyclin B intensity in EdU+ cells (cytoplasmic cyclin B; FT282-hTERT-p53-R175H CCNE1 high (C3), HU 100 mM (so in the source), listed as HU): 1.038 and 1.0461 and 1.056
fold-change of cytoplasmic cyclin B intensity in EdU+ cells (cytoplasmic cyclin B; FT282-hTERT-p53-R175H CCNE1 high (C3), HU 200 mM (so in the source), listed as HU): 1.095 and 1.0628 and 1.094
fold-change of cytoplasmic cyclin B intensity in EdU+ cells (cytoplasmic cyclin B; FT282-hTERT-p53-R175H CCNE1 high (C3), HU 400 mM (so in the source), listed as HU): 1.408 and 1.403 and 1.354
fold-change of cytoplasmic cyclin B intensity in EdU+ cells (cytoplasmic cyclin B; FT282-hTERT-p53-R175H WT, HU 50 mM (so in the source), listed as HU): 1.011 and 1.029 and 1.0186
fold-change of cytoplasmic cyclin B intensity in EdU+ cells (cytoplasmic cyclin B; FT282-hTERT-p53-R175H WT, HU 100 mM (so in the source), listed as HU): 1.025 and 1.031 and 1.053
fold-change of cytoplasmic cyclin B intensity in EdU+ cells (cytoplasmic cyclin B; FT282-hTERT-p53-R175H WT, HU 200 mM (so in the source), listed as HU): 1.0835 and 1.059 and 1.12
fold-change of cytoplasmic cyclin B intensity in EdU+ cells (cytoplasmic cyclin B; FT282-hTERT-p53-R175H WT, HU 400 mM (so in the source), listed as HU): 1.261 and 1.177 and 1.385

effect on PKMYT1 catalytic activity (human recombinant PKMYT1; ADP-Glo dose-response): no effect
PKMYT1 catalytic activity, ADP-Glo signal (human recombinant PKMYT1; c0 (log10 concentration, head mM) 1): 13700
PKMYT1 catalytic activity, ADP-Glo signal (human recombinant PKMYT1; c0 (log10 concentration, head mM) -0.57777): 15400
PKMYT1 catalytic activity, ADP-Glo signal (human recombinant PKMYT1; c0 (log10 concentration, head mM) -2.18442): 16550
PKMYT1 catalytic activity, ADP-Glo signal (human recombinant PKMYT1; c0 (log10 concentration, head mM) -3.8365): 15000
PKMYT1 catalytic activity, ADP-Glo signal (human recombinant PKMYT1; c0 (log10 concentration, head mM) -5.64386): 14750
PKMYT1 catalytic activity, ADP-Glo signal (human recombinant PKMYT1; c0 (log10 concentration, head mM) -6.93016): 14350
PKMYT1 catalytic activity, ADP-Glo signal (human recombinant PKMYT1; c0 (log10 concentration, head mM) -8.53282): 14150
PKMYT1 catalytic activity, ADP-Glo signal (human recombinant PKMYT1; c0 (log10 concentration, head mM) -10.0955): 14900
PKMYT1 catalytic activity, ADP-Glo signal (human recombinant PKMYT1; c0 (log10 concentration, head mM) -11.6789): 15800
PKMYT1 catalytic activity, ADP-Glo signal (human recombinant PKMYT1; c0 (log10 concentration, head mM) -13.2591): 15500
SMILES: Cc1cnc2c(c1)c(C(N)=O)c(N)n2-c1c(C)cccc1C [RP-6421]

SMILES: Nc1ccn([C@@H]2O[C@H](CO)[C@@H](O)C2(F)F)c(=O)n1 [gemcitabine]
growth relative to DMSO control (HCC1569 cells; 0.556 nM gemcitabine, DMSO = 100): 76.36 and 70.43
% growth relative to untreated (HCC1569 cells; gemcitabine 0.0524288 nM): 96.4701%
% growth relative to untreated (HCC1569 cells; gemcitabine 0.131072 nM): 85.3567%
% growth relative to untreated (HCC1569 cells; gemcitabine 0.32768 nM): 85.2938%
% growth relative to untreated (HCC1569 cells; gemcitabine 0.8192 nM): 45.6374%
% growth relative to untreated (HCC1569 cells; gemcitabine 2.048 nM): 16.2355%
% growth relative to untreated (HCC1569 cells; gemcitabine 5.12 nM): 11.6895%
% growth relative to untreated (HCC1569 cells; gemcitabine 12.8 nM): 9.354%
% growth relative to untreated (HCC1569 cells; gemcitabine 32 nM): 7.468%
% growth relative to untreated (HCC1569 cells; gemcitabine 80 nM): 5.95%
Quantitation of CDK1 (immunoblot of whole cell lysates) ([1]; 5 nM Gemcitabine): 1.203 and 0.9791 and 1.593
Quantitation of CDK1-pT14 relative to total CDK1 (immunoblot of whole cell lysates) ([1]; 5 nM Gemcitabine): 1.528 and 2.085 and 1.888
Quantitation of cyclin B (immunoblot of whole cell lysates) ([1]; 5 nM Gemcitabine): 1.877 and 1.201 and 1.262
levels of cyclin B or CDK1 [1]: did not detect increased levels
CDK1 pT14 levels [1]: increased
fold-change of cytoplasmic cyclin B intensity in EdU+ cells (cytoplasmic cyclin B; FT282-hTERT-p53-R175H CCNE1 high (C3), gemcitabine 5 nM): 1.161 and 1.404 and 1.38
fold-change of cytoplasmic cyclin B intensity in EdU+ cells (cytoplasmic cyclin B; FT282-hTERT-p53-R175H WT, gemcitabine 5 nM): 1.346 and 1.467 and 1.135
